{"source": "paper PMC7006816", "about": "“Human β-Defensin 2 Mediated Immune Modulation as Treatment for Experimental Colitis” (Frontiers in Immunology, 2020)", "key": {"murine BM-DC's [1]": {"system": "murine BM-DC's", "test": "Flow cytometry of BM-DCs (p-NF-κB, p-CREB, MHCII, CD86)", "format": "cell-based, mouse", "details": "RS504393 prior to LPS + hBD2; n = 6", "description": "(§1) BM-DC's were generated using granulocyte-macrophage colony-stimulating factor (GM-CSF) and RPMI-1640 medium (Merck) supplemented with 10% fetal calf serum (FBS; Life Technologies), 2 mM glutamine (Thermo Fisher), 100 U/ml penicillin/streptomycin (Gibco), 50 μM 2-mercaptoethanol (Roth), 1 mM sodium pyruvate (Biochrome), and 1x non-essential amino acids (Biochrome) as previously described ([28]). Shortly, 2 × 10^6 bone marrow cells flushed from the tibias and femurs of C57BL/6 mice were seeded in dishes containing 200 U/ml GM-CSF. After 3 days extra medium containing GM-CSF was added to the cells and on day 6 half of the medium was replaced by fresh […] containing GM-CSF. After 7 or 8 days slightly attached cells were harvested. Female C57BL/6JolaHsd mice were purchased from Janvier (St. Berthevin Cedex, France). Animal experiments were performed in strict accordance with the German regulations of the Society for Laboratory Animal Science (GV-SOLAS) and the European Health Law of the Federation of Laboratory Animal Science Associations (FELASA). The protocol was approved by the Regierungspräsidium Tübingen (Anzeige 09.01.2014).\n2 × 10^5 murine BM-DC's were seeded in 96-well round bottom plates and treated as described above. Cells were removed from the plate using Accutase (Sigma-Aldrich) and stained for 20 min at room temperature with Zombie Aqua (Biolegend) to exclude dead cells and extracellular antibodies against CD11c-APC (N418) (Miltenyi), MHCII-FITC (M5/114.15.2) (Miltenyi) and CD86-BV421 (GL-1) (Biolegend). For p-CREB staining cells were fixed and permeabilized with Foxp3 Staining Buffer Set (eBioscience) and stained with primary antibody phosphor-CREB mAb (Ser133; clone 87G3) (Cell Signaling) for 30 min in the dark at room temperature followed by secondary goat anti-rabbit IgG-DyLight™649 (Jackson ImmunoResearch) for 15 min at 4°C. To detect intracellular p-NF-κB BM-DCs were fixed with 2% paraformaldehyde (VWR) in PBS, permeabilized with 90% freezing methanol (Applichem) and stained with the primary antibodies to phosphor-NF-κB p65 (93H1) (Cell Signaling) for 60 min in the dark at room temperature followed by goat anti-rabbit IgG-PE-Cy7 (Santa Cruz Biotechnology) for 15 min at 4°C. PBS with 0,5% bovine serum albumin (Biomol) was used for all incubations and washing steps. At least 50,000 cells were acquired using a Canto-II flow cytometer (BD […]) with DIVA software (BD Biosciences) and were further analyzed using FlowJo 10.5 software (Tree Star)."}, "murine BM-DC's [2]": {"system": "murine BM-DC's", "test": "Cytokine production by murine BM-DC's", "format": "cell-based, mouse", "description": "as §1\n2 × 10^5 murine BM-DC's or human Mo-DC's were seeded in 96-well round bottom plates. First they were pretreated with 100 ng/ml pertussis toxin (Sigma-Aldrich) or 5 μM of the CCR2 inhibitor RS 504393 (Tocris) and subsequently stimulated with 100 ng/ml LPS or 0.2 […] and 10 μg/ml or 100 μg/ml hBD2. 24 h later supernatants were collected and TNF-α [Biolegend (BM-DC's); R&D (Mo-DC's)] was analyzed according to the manufacturer's instructions. IL-10, IL-12, and IL-1β (LEGENDplex Biolegend) was as well-analyzed according to the manufacturer's instructions."}, "[3]": {"system": "SCID mice with CD4+/CD25− T cell transfer colitis", "test": "T cell transfer colitis model", "format": "in vivo, mouse", "description": "This study was performed by the Department of Biomedical Science at the University of Catania according to directive 86/609 EEC and approved by Novozymes science ethics committee. 8 weeks old female BALB/c and C.B-17 female SCID mice were purchased from Harlan (Italy). Colitis was induced in severe combined immunodeficiency (SCID) mice by transplantation of CD4^+/CD25^− T cells from the BALB/c mice. Briefly, lymphomonocytes isolated from spleen or lymph nodes from BALB/c mice were subjected to negative selection of CD4^+ T cells. Afterwards, CD4^+/CD25^+ cells were positively isolated by binding to the beads from the CD4^+ T cell suspensions and the CD4^+/CD25^− were collected from supernatant. […] CD4^+/CD25^− cells were intraperitoneally injected to SCID mice at a concentration of 500,000 cells in a final volume of 0.2 ml RPMI 1640. Sham treated animals (n = 6) received 0.2 ml pure RPMI 1640. Diseased mice were randomized divided into 4 groups (n = 11) and treated once daily by s.c. application of PBS (vehicle), hBD2 (0.1 and 1 mg/kg, respectively) or 0.3 mg/kg Dexamethasone (Dexa., applied intraperitoneally). Treatments started 7 days post T cell transfer and continued daily for 86 days. Animals were weighed three times a week and monitored twice a week starting from day 42 for the clinical status, summarized as DAI. The DAI included body weight loss, stool consistency, and the presence of blood at the rectum. One animal in the vehicle and one in the Dexamethasone treated groups had to be sacrificed before the end of the study. At the end of the study, animals were sacrificed and the colon was removed and carefully cleaned for further analysis. First, the colon was weighed then a section from the middle was removed and fixed for pathologic survey. The rest of the colon (5 cm) was used to quantify the activity of myeloperoxidase in the tissue.\nMyeloperoxidase activity was performed on 5 cm of colon previously frozen at −80°C. Colon was homogenized in 0.5% of HETAB dissolved in 10 mM of Phosphate-Citrate Buffer (pH 7.0) to enable the release of MPO enzyme from the neutrophil granules. Homogenated samples after three freeze-thaw cycles were spun at 3,000 × g at 4°C for 30 min. Pellets were resuspended in 0.5% HETAB in 10 mM Phosphate-Citrate Buffer and spun again at 3,000 × g at 4°C for 30 min. 500 ul of supernatant were delivered into a vial along with 500 ul of TMB in Phosphate-Citrate Buffer containing Perborate Sodium. Changes in absorbance at 620 and 450 nm were read by a spectrophotometer (IRIS). Peroxidase enzyme diluted in 0.5% HETAB in 10 mM Phosphate-Citrate Buffer and H2O was used as standard. Two-fold dilutions of standard were prepared at the highest concentration of 50 pg/ml. Reagents and samples were kept refrigerated. Substrate solution was prepared just before the assay. MPO activity expresses the amount of enzyme that is able to degrade […] of peroxide/min and it is expressed as U/g tissue weight.\nSections of the colon were taken from each animal and preserved in neutral buffered formaline for subsequent histological analysis. Sections were stained using haematoxylin and eosin for further scoring."}, "CD patients": {"system": "CD patients", "details": "clinical trial; cited from earlier work", "description": "Despite ongoing development of therapeutic approaches, new treatment strategies for the management of IBD are still urgently needed. Corticosteroids remain the standard therapeutic options for active CD and UC. However, their beneficial effects are associated with severe side effects such as osteoporosis, moon face, mood disturbances, glaucoma, and hypertension ([47]). In recent years, several new therapeutics targeting the molecular mechanisms of intestinal and systemic inflammation have been developed. Among these, anti-TNFα antibodies have been the most successful and most commonly used bio ..."}, "[4]": {"system": "human dendritic cells and keratinocytes", "details": "cited from earlier work", "description": "Herein we report that hBD2 can be used as a systemically administered anti-inflammatory biological. hBD2 is well-tolerated, both in vitro, and in vivo. […] After su ..."}, "mice with DSS colitis": {"system": "mice with DSS colitis", "details": "rectally applied; cited from earlier work"}, "[5]": {"details": "Dexamethasone 0.3 mg/kg i.p. daily, n = 10"}}, "note": "Where no end group is shown, it is not given here."}
{"compound": "Cc1ccc2c(c1)C1(CCN(CCc3nc(-c4ccccc4)oc3C)CC1)OC(=O)N2", "note": "[RS504393, RS 504393, reference compound]", "values": [{"measurement": "Effect of pre-treatment on hBD2-mediated change of CREB phosphorylation", "setting": "murine BM-DC's [1]", "value": "prevented the increase in CREB phosphorylation"}, {"measurement": "Effect of pre-treatment on hBD2-mediated change of MHCII and CD86 expression", "setting": "murine BM-DC's [1]", "value": "prevented this lower expression"}, {"measurement": "Effect of pre-treatment on hBD2-mediated change of NF-κB phosphorylation", "setting": "murine BM-DC's [1]", "value": "prevented the hBD2-mediated reductions in NF-κB activation"}, {"measurement": "Effect of pre-treatment on hBD2 modulation of cytokine secretion", "setting": "murine BM-DC's [2]; 5 μM RS504393 before LPS and hBD2", "value": "prevented the anti-inflammatory effect of hBD2"}]}
{"compound": "C[C@@H]1C[C@H]2[C@@H]3CCC4=CC(=O)C=C[C@]4(C)[C@@]3(F)[C@@H](O)C[C@]2(C)[C@@]1(O)C(=O)CO", "note": "[dexamethasone, Dexamethasone, reference compound]", "values": [{"measurement": "Histological analysis of colon", "setting": "[3]; Dexamethasone 0.3 mg/kg i.p. daily", "value": "Less signs of inflammation"}, {"measurement": "Efficacy compared with hBD2", "setting": "[3]; Dexamethasone 0.3 mg/kg i.p. daily vs hBD2 s.c.", "value": "superior to hBD2 in the T cell transfer model"}, {"measurement": "Colon weight", "setting": "[3]; [5]", "value": "improved DAI, stool score and colon weight significantly"}, {"measurement": "DAI", "setting": "[3]; [5]", "value": "improved DAI, stool score and colon weight significantly"}, {"measurement": "Stool score", "setting": "[3]; [5]", "value": "improved DAI, stool score and colon weight significantly"}]}
{"compound": "Secukinumab", "values": [{"measurement": "Disease course in CD patients", "setting": "CD patients", "value": "worsened the disease"}]}
{"compound": "hBD3: defensin named only as hBD3, cited for cytotoxicity in contrast to hBD2 (GIINTLQKYYCRVRGGRCAVLSCLPKEEQIGKCSTRGRKCCRRKK; ends and bridges not checked; cysteine pairing not given here; UniProt P81534 23-67, looked up)", "values": [{"measurement": "Cytotoxic effects", "setting": "[4]", "value": "demonstrated cytotoxic effects"}]}
{"compound": "pertussis toxin [reference compound]", "values": [{"measurement": "Effect of pre-treatment on hBD2 modulation of TNF-α, IL-1β, IL-10, IL-12p70 secretion", "setting": "murine BM-DC's [2]; 100 ng/ml pertussis toxin before LPS and hBD2", "value": "prevented the observed immunomodulatory capacity of hBD2"}]}
{"compound": "porcine β-defensin 2 [pBD2]", "values": [{"measurement": "Mucosal injury and epithelial barrier in DSS colitis", "setting": "mice with DSS colitis", "value": "protective against mucosal injury and disruption of the epithelial barrier"}]}
